Laboratory results: patent US9845326B2, “Substituted 3,4-dihydropyrrolo[1,2-A]pyrazines as beta-secretase (BACE) inhibitors” (priority 2011, dated 2017)

Assays:
Aβtotal [1] = experiment: In vivo efficacy: brain Aβtotal lowering (ELISA); set-up: species or system mouse; conditions: 30 mg/kg, p.o., 4 h. after administration, soluble fraction
From the text: (§1) To determine whether acute administration of an Aβ42 peptide lowering agent would reduce Aβ peptide levels in vivo, non-transgenic rodents, e.g. mice or rats were used. Animals treated with the Aβ peptide lowering agent were examined and compared to those untreated or treated with vehicle and brain levels of soluble Aβ42 and total Aβ were quantitated by standard techniques, for example, using ELISA. Treatment periods varied from hours (h) to days and were adjusted based on the results of the Aβ42 lowering once a time course of onset of effect could be established.
(§2) A typical protocol for measuring Aβ42 lowering in vivo is shown but it is only one of many variations that could be used to optimize the levels of detectable Aβ. […] After a certain time, usually 2 or 4 h (as indicated in Table 7), the animals were sacrificed and Aβ42 levels were analysed.
(§3) Blood was collected by decapitation and exsanguinations in EDTA-treated collection tubes. […] The left hemisphere was stored at −18° C. for quantitative analysis of test compound levels. […]
(§4) Mouse brains from non-transgenic animals were resuspended in 8 volumes of 0.4% DEA (diethylamine)/50 mM NaCl containing protease inhibitors (Roche-11873580001 or 04693159001) per gram of tissue, e.g. for 0.158 g brain, add 1.264 ml of 0.4% DEA. […] Nine parts of supernatant were neutralized with 1 part 0.5 M Tris-HCl pH 6.8 and used to quantify Aβtotal and Aβ42. […]

Aβ42 [2] = experiment: In vivo efficacy: brain Aβ42 lowering (ELISA); set-up: species or system mouse; conditions: 30 mg/kg, p.o., 4 h. after administration, soluble fraction
From the text: as §1, §2, §3, §4

Aβtotal [3] = experiment: Cellular αlisa assay in SKNBE2 cells, Aβtotal; assay type: cell-based, human; conditions: Homo sapiens, SKNBE2, 18 h, SKNBE2 cells expressing hAPP695, 18 hours incubation; read-out: Cellular αlisa assay in SKNBE2 cells Aβtotal pIC50 (converted)
Description: (§5) In two αlisa assays the levels of Aβtotal and Aβ42 produced and secreted into the medium of human neuroblastoma SKNBE2 cells are quantified. The assay is based on the human neuroblastoma SKNBE2 expressing the wild type Amyloid Precursor Protein (hAPP695). The compounds are diluted and added to these cells, incubated for 18 hours and then measurements of Aβ42 and Aβtotal are taken. Aβtotal and Aβ42 are measured by sandwich αlisa. αlisa is a sandwich assay using biotinylated antibody AbN/25 attached to streptavidin coated beads and antibody Ab4G8 or cAb42/26 conjugated acceptor beads for the detection of Aβtotal and Aβ42 respectively. In the presence of Aβtotal or Aβ42, the beads come into close proximity. The excitation of the Donor beads provokes the release of singlet oxygen molecules that triggers a cascade of energy transfer in the Acceptor beads, resulting in light emission. Light emission is measured after 1 hour incubation (excitation at […] and emission at 615 nm).
(§6) From this an […] value (inhibitory concentration causing 50% inhibition of activity) can be obtained.

Aβ42 [4] = experiment: Cellular αlisa assay in SKNBE2 cells, Aβ42; assay type: cell-based, human; conditions: Homo sapiens, SKNBE2, 18 h, SKNBE2 cells expressing hAPP695, 18 hours incubation; read-out: Cellular αlisa assay in SKNBE2 cells Aβ42 pIC50 (converted)
Description: as §5, §6

BACE1 = BACE1 (Homo sapiens, UniProt P56817); experiment: Biochemical FRET based assay; conditions: Biochemical FRET based assay pIC50, recombinant BACE1 1 μg/ml, 120 min, room temperature, pH 5.0
From the text: This assay is a Fluorescence Resonance Energy Transfer Assay (FRET) based assay. The substrate for this assay is an APP derived 13 amino acids peptide that contains the ‘Swedish’ Lys-Met/Asn-Leu mutation of the amyloid precursor protein (APP) β-secretase cleavage site. This substrate also contains two fluorophores: (7-methoxy-coumarin-4-yl) acetic acid (Mca) is a fluorescent donor with excitation wavelength at 320 nm and emission at 405 nm and 2,4-Dinitrophenyl (Dnp) is a proprietary quencher acceptor. […] Upon cleavage by BACE1, the fluorophore Mca is separated from the quenching group Dnp, restoring the full fluorescence yield of the donor. The increase in fluorescence is linearly related to the rate of proteolysis (Koike H et al. J. Biochem. 1999, 126, 235-242).
Briefly in a 384-well format recombinant BACE1 protein in a final concentration of 1 μg/ml is incubated for 120 min at room temperature with 10 μm substrate in incubation buffer (40 mM Citrate buffer pH 5.0, 0.04% PEG, 4% DMSO) in the absence or presence of compound. Next the amount of proteolysis is directly measured by fluorescence measurement at T=0 and T=120 (excitation at 320 nm and emission at 405 nm). Results are expressed in RFU, as difference between T120 and T0
From this an IC50 value (inhibitory concentration causing 50% inhibition of activity) can be obtained.

Sequence of BACE1 (P56817 46-501): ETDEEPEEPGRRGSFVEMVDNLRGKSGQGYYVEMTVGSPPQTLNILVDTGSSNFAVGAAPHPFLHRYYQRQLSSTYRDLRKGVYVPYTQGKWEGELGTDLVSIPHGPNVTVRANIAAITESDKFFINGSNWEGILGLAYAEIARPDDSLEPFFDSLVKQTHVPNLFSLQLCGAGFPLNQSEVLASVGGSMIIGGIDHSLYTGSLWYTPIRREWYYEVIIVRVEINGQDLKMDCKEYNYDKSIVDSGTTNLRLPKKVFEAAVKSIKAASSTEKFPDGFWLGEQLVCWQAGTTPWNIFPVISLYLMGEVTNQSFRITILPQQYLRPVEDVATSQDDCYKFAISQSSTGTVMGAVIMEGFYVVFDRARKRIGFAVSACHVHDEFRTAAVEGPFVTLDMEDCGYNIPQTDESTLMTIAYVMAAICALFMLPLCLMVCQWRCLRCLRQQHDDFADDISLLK

C[C@@]1(c2cc(NC(=O)c3ccc(F)cn3)ccc2F)Cn2cc(F)cc2C(N)=N1 [Compound 7, (R)-5-Fluoro-pyridine-2-carboxylic acid [3-(1-amino-7-fluoro-3-methyl-3,4-dihydro-pyrrolo[1,2-a]pyrazin-3-yl)-4-fluoro-phenyl]-amide]
Aβtotal (%Ctrl)_Mean (Aβtotal [1]): 99 %Ctrl
Aβ42 (%Ctrl)_Mean (Aβ42 [2]): 73 %Ctrl
IC50 (Aβtotal [3]): 5.62 nM
IC50 (Aβ42 [4]): 6.61 nM
IC50 (BACE1): 41.7 nM
